US9382228B2 (priority 2013, dated 2016)

Assays:
[1] = system: osteoclast precursors; test: cells; format: cell-based; settings: read-out: Osteoclast assay
[2] = target: unphosphorylated PDGFRβ kinase (uPDGFRβ, Seq. ID No. 3) (Homo sapiens, UniProt P09619); test: biochemical
[3] = target: unphosphorylated c-KIT kinase (uKIT, Seq. ID no. 2) (Homo sapiens, UniProt P10721); test: biochemical
Description: uKit kinase (Seq. ID No. 2) Assay
In this assay, the oxidation of NADH (thus the decrease at A340 nm) was continuously monitored spectrophometrically. […] The inhibition reaction was started by mixing serial diluted test compound with the above reaction mixture. The absorption at 340 nm was monitored continuously for 4 hours at 30° C. on Synergy 2 plate reader (BioTech).

[4] = target: T1, unphosphorylated c-FMS kinase (uFMS, Seq. ID no. 1) (Homo sapiens, UniProt P07333); test: biochemical
T1 sequence (P07333 538-972): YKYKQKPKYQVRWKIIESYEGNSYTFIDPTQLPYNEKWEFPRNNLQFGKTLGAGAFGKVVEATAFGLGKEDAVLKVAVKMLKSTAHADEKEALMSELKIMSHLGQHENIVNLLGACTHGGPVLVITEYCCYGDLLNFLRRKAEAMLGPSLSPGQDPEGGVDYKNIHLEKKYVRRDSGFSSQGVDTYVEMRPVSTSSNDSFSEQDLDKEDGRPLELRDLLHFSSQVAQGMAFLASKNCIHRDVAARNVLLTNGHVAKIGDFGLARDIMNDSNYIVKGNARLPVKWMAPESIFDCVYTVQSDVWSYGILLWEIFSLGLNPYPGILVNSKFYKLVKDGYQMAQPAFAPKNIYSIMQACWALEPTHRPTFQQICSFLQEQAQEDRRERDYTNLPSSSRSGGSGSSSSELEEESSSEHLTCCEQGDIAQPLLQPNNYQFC

[5] = system: M-NFS-60 cells; test: cells; settings: 67 h, read-out: M-NFS-60 cell proliferation
Description: M-NFS-6 Cell Proliferation Assay
A serial dilution of test compound was dispensed into a 384-well black clear bottom plate (Corning, Corning, N.Y.). Two thousand five hundred cells were added per well in 50 μL complete growth medium. […] IC50 values were calculated from a series of percent inhibition values determined at a range of inhibitor concentrations using software routines as implemented in the GraphPad Prism software package.

[6] = system: phospho-FMS in THP-1 cells; test: cells; settings: Homo sapiens, THP-1, read-out: pFMS inhibition in THP-1 cells
Description: In a separate 96 well black clear bottom plate, one hundred and fifty thousand THP-1 cells were added per well in 100 μL in assay medium. Fifty microliters of diluted compound was then added to the cells. […] Lysates were prepared and used to perform the phospho-FMS ELISA as described by the manufacturer (catalog #DYC3268, R & D Systems, Minneapolis, Minn.). GraphPad Prism was used to calculate IC50 values obtained from data generated from the ELISA assay.

[7] = uPDGFRb, enzymatic assay, ATP 500 μM
[8] = uKIT, enzymatic assay, ATP 2000 μM
[9] = uFMS, enzymatic assay, ATP 500 μM

Chain of unphosphorylated PDGFRβ kinase (uPDGFRβ, Seq. ID No. 3) (P09619 557-1106): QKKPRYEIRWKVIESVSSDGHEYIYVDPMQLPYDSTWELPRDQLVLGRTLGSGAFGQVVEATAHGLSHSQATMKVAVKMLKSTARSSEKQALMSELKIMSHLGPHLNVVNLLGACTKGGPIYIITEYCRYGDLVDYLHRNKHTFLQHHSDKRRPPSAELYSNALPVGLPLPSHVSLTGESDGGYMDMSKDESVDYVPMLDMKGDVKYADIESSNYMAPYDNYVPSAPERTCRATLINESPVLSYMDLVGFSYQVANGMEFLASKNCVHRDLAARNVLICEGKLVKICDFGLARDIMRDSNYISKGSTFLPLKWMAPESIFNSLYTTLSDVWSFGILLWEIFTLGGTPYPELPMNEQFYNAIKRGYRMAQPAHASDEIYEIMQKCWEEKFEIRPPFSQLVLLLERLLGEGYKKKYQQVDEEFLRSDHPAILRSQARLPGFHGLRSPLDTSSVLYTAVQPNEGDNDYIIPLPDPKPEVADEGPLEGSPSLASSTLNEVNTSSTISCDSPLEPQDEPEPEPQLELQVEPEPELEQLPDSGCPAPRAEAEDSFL
Chain of unphosphorylated c-KIT kinase (uKIT, Seq. ID no. 2) (P10721 with tags, fused parts or gaps): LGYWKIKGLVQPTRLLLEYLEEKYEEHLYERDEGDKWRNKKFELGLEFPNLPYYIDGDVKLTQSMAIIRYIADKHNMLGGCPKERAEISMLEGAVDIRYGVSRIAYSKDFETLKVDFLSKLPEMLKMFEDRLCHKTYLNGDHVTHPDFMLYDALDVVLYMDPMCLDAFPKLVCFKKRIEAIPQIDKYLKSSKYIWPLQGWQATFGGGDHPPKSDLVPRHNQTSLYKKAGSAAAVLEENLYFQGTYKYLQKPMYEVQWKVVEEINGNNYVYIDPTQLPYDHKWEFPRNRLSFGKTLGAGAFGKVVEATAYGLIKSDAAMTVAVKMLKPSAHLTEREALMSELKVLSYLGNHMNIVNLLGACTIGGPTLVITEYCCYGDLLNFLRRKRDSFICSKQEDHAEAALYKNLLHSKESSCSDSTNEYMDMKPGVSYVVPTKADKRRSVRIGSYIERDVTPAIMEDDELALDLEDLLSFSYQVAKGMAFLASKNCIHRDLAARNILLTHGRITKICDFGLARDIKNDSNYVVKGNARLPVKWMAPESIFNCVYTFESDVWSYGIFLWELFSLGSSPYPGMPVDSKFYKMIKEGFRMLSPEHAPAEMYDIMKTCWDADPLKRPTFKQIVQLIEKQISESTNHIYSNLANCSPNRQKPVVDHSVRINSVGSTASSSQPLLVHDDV

SMILES | IC50 [1] [nM] | IC50 [2, 7] [nM] | IC50 [3, 8] [nM] | IC50 [4, 9] [nM] | IC50 [6] [nM] | IC50 ([2]; IC50 (nM) uPDGFRβ, Table 3) [nM] | IC50 ([3]; IC50 (nM) uKIT, Table 3) [nM] | IC50 ([4]; IC50 (nM) uFMS, Table 3) [nM] | IC50 [5] [nM]
Cc1nc(NC(=O)NC(=O)C(C)(C)C(F)(F)F)ccc1Oc1ccnc(-c2cnn(C)c2)c1 [Example 36, 3,3,3-trifluoro-2,2-dimethyl-N-((6-methyl-5-((2-(1-methyl-1H-pyrazol-4-yl)pyridin-4-yl)oxy)pyridin-2-yl)carbamoyl)propanamide] | 10 to 100 | 100 to 1000 | 100 to 1000 | < 10 | 10 to 100 | – | – | – | 10 to 100
Cn1cc(-c2cc(Oc3ccc(NC(=O)NC(=O)C45CC6CC(CC(C6)C4)C5)nc3)ccn2)cn1 [Example 38, N-((5-((2-(1-methyl-1H-pyrazol-4-yl)pyridin-4-yl)oxy)pyridin-2-yl)carbamoyl)adamantane-1-carboxamide] | 10 to 100 | < 10 | 10 to 100 | < 10 | 10 to 100 | – | – | – | 10 to 100
CN1CCN(CC(=O)NC(=O)Nc2ccc(Oc3ccnc(-c4cnn(C)c4)c3)cn2)CC1 [Example 49, N-((5-((2-(1-methyl-1H-pyrazol-4-yl)pyridin-4-yl)oxy)pyridin-2-yl)carbamoyl)-2-(4-methylpiperazin-1-yl)acetamide] | 100 to 1000 | > 1000 | > 1000 | 10 to 100 | 100 to 1000 | – | – | – | > 1000
CCn1cc(-c2cc(Oc3ccc(NC(=O)NC(=O)C(C)(C)C)nc3C)ccn2)cn1 [Example 60, N-((5-((2-(1-ethyl-1H-pyrazol-4-yl)pyridin-4-yl)oxy)-6-methylpyridin-2-yl)carbamoyl)pivalamide] | 10 to 100 | > 1000 | > 1000 | < 10 | < 10 | – | – | – | 10 to 100
CCC(C)(C)C(=O)NC(=O)Nc1ccc(Oc2ccnc(-c3cnn(C)c3)c2)c(C)n1 [Example 69, 2,2-dimethyl-N-((6-methyl-5-((2-(1-methyl-1H-pyrazol-4-yl)pyridin-4-yl)oxy)pyridin-2-yl)carbamoyl)butanamide] | 10 to 100 | 100 to 1000 | 100 to 1000 | < 10 | 10 to 100 | – | – | – | < 10

Continued, in another order:

IC50 [1] [nM] | IC50 [2, 7] [nM] | IC50 [3, 8] [nM] | IC50 [4, 9] [nM] | IC50 [6] [nM] | IC50 ([2]; IC50 (nM) uPDGFRβ, Table 3) [nM] | IC50 ([3]; IC50 (nM) uKIT, Table 3) [nM] | IC50 ([4]; IC50 (nM) uFMS, Table 3) [nM] | SMILES | IC50 [5] [nM]
< 10 | > 1000 | 100 to 1000 | < 10 | < 10 | – | – | – | Cn1cc(-c2cc(Oc3ccc(NC(=O)NC(=O)C4CC4)nc3)ccn2)cn1 [Example 51, N-((5-((2-(1-methyl-1H-pyrazol-4-yl)pyridin-4-yl)oxy)pyridin-2-yl)carbamoyl)cyclopropanecarboxamide] | 10 to 100
< 10 | > 1000 | > 1000 | < 10 | < 10 | – | – | – | CCn1cc(-c2cc(Oc3ccc(NC(=O)NC(=O)C(C)C)nc3C)ccn2)cn1 [Example 61, N-((5-((2-(1-ethyl-1H-pyrazol-4-yl)pyridin-4-yl)oxy)-6-methylpyridin-2-yl)carbamoyl)isobutyramide] | 10 to 100
< 10 | > 1000 | 100 to 1000 | < 10 | < 10 | – | – | – | Cn1cc(-c2cc(Oc3ccc(NC(=O)NC(=O)C4CCOC4)nc3)ccn2)cn1 (stereo not drawn) [Example 66, N-((5-((2-(1-methyl-1H-pyrazol-4-yl)pyridin-4-yl)oxy)pyridin-2-yl)carbamoyl)tetrahydrofuran-3-carboxamide] | 10 to 100
< 10 | 100 to 1000 | > 1000 | < 10 | 10 to 100 | 922 | 2600 | 4 | Cc1ncc(-c2cc(Oc3ccc(NC(=O)NC(=O)C(C)(C)C)nc3)ccn2)s1 [Example 70, N-((5-((2-(2-methylthiazol-5-yl)pyridin-4-yl)oxy)pyridin-2-yl)carbamoyl)pivalamide] | 10 to 100
< 10 | > 1000 | > 1000 | < 10 | 10 to 100 | – | – | – | Cc1ccc(-c2cc(Oc3ccc(NC(=O)NC(=O)C(C)C)nc3C)ccn2)cn1 [Example 71, N-((6-methyl-5-((6′-methyl-[2,3′-bipyridin]-4-yl)oxy)pyridin-2-yl)carbamoyl)isobutyramide] | 10 to 100
